ChEMBL document CHEMBL1135430, “Synthesis of 3,4-dihydro-2H-1,2,4-benzo-thiadiazine 1,1-dioxide derivatives as potential allosteric modulators of AMPA/kainate receptors” (2002)

Species on record: Rattus norvegicus
Test: Variation of kainate-activated (KA) currents in primary cultures of cerebellar granule neurons at 1 mM using patch-clamp technique
Assay type: functional

**Q.** CN(C)c1ccc(C2Nc3ccccc3S(=O)(=O)N2)cc1 (stereo unspecified) was tested. Which Variation did it give?
**A.** The Variation was -1%.

**Q.** With O=S1(=O)NC(c2ccc(O)cc2)Nc2ccc(Cl)cc21 (stereo unspecified) as the compound, how does the Variation read?
**A.** The Variation was -51%.

**Q.** O=S1(=O)NC(CCl)Nc2ccccc21 (stereo unspecified) was tested. Which Variation did it give?
**A.** Its Variation is -22%.

**Q.** For O=S1(=O)NC(C(F)(F)F)Nc2ccccc21 (stereo unspecified), which Variation is on record?
**A.** The Variation was 70%.

**Q.** Which Variation does the source give for O=S1(=O)NC(c2ccccc2)Nc2ccccc21 (stereo unspecified) here?
**A.** The Variation was -34%.

**Q.** How did the Variation turn out when O=S1(=O)NC(CCl)Nc2ccc(Cl)cc21 (stereo unspecified) was run?
**A.** Its Variation is -26%.

**Q.** With O=S1(=O)NC(c2ccc(O)cc2)Nc2ccccc21 (stereo unspecified) as the compound, how does the Variation read?
**A.** Its Variation is -60%.

**Q.** CC1Nc2ccc(Cl)cc2S(=O)(=O)N1 (stereo unspecified) was tested. Which Variation did it give?
**A.** The Variation was 115%.

**Q.** CN(C)c1ccc(C2Nc3ccc(Cl)cc3S(=O)(=O)N2)cc1 (stereo unspecified) was tested. Which Variation did it give?
**A.** Its Variation is -1%.

**Q.** Which Variation does the source give for O=S1(=O)NC(C(F)(F)F)Nc2ccc(Cl)cc21 (stereo unspecified) here?
**A.** Its Variation is 72%.

**Q.** For NS(=O)(=O)c1cc2c(cc1Cl)NC(C1CC3C=CC1C3)NS2(=O)=O (stereo unspecified) [CYCLOTHIAZIDE], which Variation is on record?
**A.** Its Variation is 111%.
